Where two headings read alike, the source gives them in different places.
How the values were obtained:
[1] = LC-MS/MS analysis of 2HF in serum after topical application; assay type: in vivo, C57BL/6 mice; conditions: topical 12 mg 2HF/0.1 mL PLO gel each day for 8 weeks, blood within 2 h after final dosage
Method: C57BL/6 mice were administered either 0.1 mL PLO gel or 12 mg 2HF in 0.1 mL PLO gel topically each day for 8 weeks. On the last day, the blood was collected within 2 h after final dosage, and subjected to LC-MS/MS analyses according to established protocol. Briefly, serum from control and 2HF-treated mice was extracted twice with 500 µL ethyl acetate and the organic layers were collected and evaporated to dryness in a speed-vac. The residue was reconstituted in 40 µL methanol containing 0.1% formic acid (FA) for analysis. An LC-MS method was developed for the quantitative analysis of 2HF using an Agilent 6490 triple quadrupole coupled with an Agilent 1290 UHPLC system. In short, the binary pump delivered buffers A (0.1% FA in water) and buffer B (0.1% FA in acetonitrile) over 10 min with the following gradient: From 10% B to 20% B in 1 min, then ramp to 90% B at 6 min, 10% B at 8 min, 10% B at 8.5 min, column equilibration post analysis was 2 min. An Agilent Zorbax, 0.5 × 150 mm, 5 µm particle size was used for the separation at a flow rate of 50 µL/min.

B16-F0 cells = test: MTT cytotoxicity assay, B16-F0; assay type: cell-based; conditions: Mus musculus, B16F0
Source text: We studied the growth-inhibitory effects of 2HF on the B16-F0 and B16-F10 murine melanoma cell lines as well as on the SK-MEL-24 human melanoma cell line. B16-F10 and SK-MEL-24 have been shown in previous studies to be highly resistant to treatment and much more invasive than B16-F0 [32]. […] The absorption value measured upon reduction of the MTT dye by functional mitochondria is an indirect measure of cell number that cannot distinguish inhibited cell proliferation from apoptotic or necrotic cell death. By counting viable (trypan-blue dye-excluding) cells using a hemacytometer, we verified that 2HF did indeed cause cell death.
Figure 1 Mouse and human melanoma cell survival following 2′-hydroxyflavanone (2HF) treatment.
The IC50 of 2HF on B16-F0, B16-F10, and SK-MEL-24 cells was determined by MTT cytotoxicity assay. Cells were harvested and Trypan Blue dye exclusion test was used to determine the number of viable cells present in a cell suspension using a hemocytometer. The cell suspension was diluted to 5 × 10^4 cells/mL with Dulbecco’s Modified Eagle’s Medium (DMEM) complete medium and 5000 cells/well were plated in 96-well plates. After 24 h incubation at 37 °C, cells were treated with 2HF concentrations ranging from 0–200 µM (8 replicates per plate). After 48 or 72 h incubation, 40 µL of MTT (5 mg/mL) solution was added. After 4 h incubation, the plate was centrifuged at 700× g for 5 min and medium was aspirated completely. Then, 50 µL DMSO was added to each well to dissolve the purple precipitate on the rocking platform for about 15 min. The absorbance was then measured at 490 nm using a 96-well microplate reader (Spectramax Plus, Molecular Devices, Inc, San Jose, CA, USA).

[2] = Blood counts and serum chemistry after topical 2HF; assay type: in vivo, B16-F0 melanoma-bearing C57B mice; conditions: topical 12 mg 2HF/0.1 mL PLO gel
Method: Blood samples were collected from representative mice from the control and 2HF-treated with 12 mg/0.1 mL PLO gel topically each day for 8 weeks just before euthanasia. These samples were used for hematologic, hepatic, renal, and metabolic profiling. A Hemavet instrument (Drew Scientific, Dallas, TX, USA) was used for determination of hematologic parameters.

## O=C1CC(c2ccccc2O)Oc2ccccc21 (stereo not shown) [2HF, 2′-hydroxyflavanone]
[1]
  2HF in serum: 4.3 ± 0.4 µM
B16-F0 cells; MTT, 72 h, mean ±SD, n = 5, read-out: IC50 at 72 h (growth/survival)
  IC50: 38 ± 4 µM
B16-F0 cells; Table 1, agent alone, read-out: IC50
  IC50: 38.6 ± 1.61 µM
[2]
  adverse effects on blood counts, renal function, or liver enzymes: no adverse effects
